# Assay results reported in patent US7282507B2, “Indole derivatives as selective androgen receptor modulators (SARMS)” (Janssen Pharmaceutica N.V., priority 2004, dated 2007).
# Values joined by “and” are separate entries in the source; they are usually repeats but may differ in a detail not shown here. Equal entries are not always repeated. Where two headings read alike, the source gives them in different places.
# Key:
# [1] = molecular target: T1, androgen receptor LBD (Panvera) (Rattus norvegicus, UniProt P15207); test: Androgen Receptor Filtration Binding Assay (PANVERA)
# T1 construct: 5 pmol androgen receptor LBD (Panvera); purchased Panvera
# T1 sequence (P15207 651-882 limits assumed): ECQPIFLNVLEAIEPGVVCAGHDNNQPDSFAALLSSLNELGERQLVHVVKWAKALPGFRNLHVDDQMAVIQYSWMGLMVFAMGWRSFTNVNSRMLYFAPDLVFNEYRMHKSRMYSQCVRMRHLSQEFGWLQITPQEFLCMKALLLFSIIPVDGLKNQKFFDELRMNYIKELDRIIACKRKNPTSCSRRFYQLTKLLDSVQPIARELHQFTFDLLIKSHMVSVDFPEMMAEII
# Description: The assay was run on a 96 well plate with each well filled with a total reaction volume 150 μL, of a solution containing 5 pmol androgen receptor LBD (Panvera) or 30 μL of freshly prepared rat cytosol, 0.5 nM [^3H] […] (TED buffer contains 10 mM Tris.HCl pH 7.4, 1 mM sodium molybdate, 1.5 mM EDTA, 1 mM DTT and 10% (v/v) glycerol.)
# On day one, the solution containing receptor, tracer and TED buffer was distributed into a 96 well plate. Diluted test compound or control vehicle was then added to individual wells and the plate incubated at 4° C. overnight.
# On day two, to each well was then added 20 μL human γ-globulin (ICN 823102), prepared at 25 mg/ml in TE pH 8.0, and 55 μL 40% polyethylene glycol 8000 (J T Baker U222-08), prepared in TE pH 8.0. The plate was incubated at 4° C. for 60 minutes. During incubation, the harvester was rinsed with 10% PEG 8000, prepared in TE pH 8.0, and a GF/C Unifilter-96 was pre-wet with 10% PEG. The binding reaction was filtered, the retentate was washed three times with 10% PEG and dried under vacuum for a couple of minutes, then dried at 50° C. for 5 min and the plate was bottom sealed. Next, 25 μL of Microscint-20 (Packard) was added to the filter wells and the plate was top sealed. The plate wells were then counted on a TopCount (Packard).
# Counts per well were measured and IC50s determined by linear regression.
# [2] = molecular target: T2, androgen receptor (rat ventral prostate cytosol) (Rattus norvegicus, UniProt P15207); test: Androgen Receptor Binding Using Rat Ventral Prostate Cytosol; conditions: for inhibition at 1 µM: read-out: % Inhibition, Androgen Receptor Binding (Rat Cytosol); for IC50: read-out: IC50 (nM), Androgen Receptor Binding (Rat Cytosol)
# T2 construct: from tissue; host or cells: ventral prostate cytosol of castrated male Sprague Dawley or Wistar rats
# T2 sequence (P15207 1-902): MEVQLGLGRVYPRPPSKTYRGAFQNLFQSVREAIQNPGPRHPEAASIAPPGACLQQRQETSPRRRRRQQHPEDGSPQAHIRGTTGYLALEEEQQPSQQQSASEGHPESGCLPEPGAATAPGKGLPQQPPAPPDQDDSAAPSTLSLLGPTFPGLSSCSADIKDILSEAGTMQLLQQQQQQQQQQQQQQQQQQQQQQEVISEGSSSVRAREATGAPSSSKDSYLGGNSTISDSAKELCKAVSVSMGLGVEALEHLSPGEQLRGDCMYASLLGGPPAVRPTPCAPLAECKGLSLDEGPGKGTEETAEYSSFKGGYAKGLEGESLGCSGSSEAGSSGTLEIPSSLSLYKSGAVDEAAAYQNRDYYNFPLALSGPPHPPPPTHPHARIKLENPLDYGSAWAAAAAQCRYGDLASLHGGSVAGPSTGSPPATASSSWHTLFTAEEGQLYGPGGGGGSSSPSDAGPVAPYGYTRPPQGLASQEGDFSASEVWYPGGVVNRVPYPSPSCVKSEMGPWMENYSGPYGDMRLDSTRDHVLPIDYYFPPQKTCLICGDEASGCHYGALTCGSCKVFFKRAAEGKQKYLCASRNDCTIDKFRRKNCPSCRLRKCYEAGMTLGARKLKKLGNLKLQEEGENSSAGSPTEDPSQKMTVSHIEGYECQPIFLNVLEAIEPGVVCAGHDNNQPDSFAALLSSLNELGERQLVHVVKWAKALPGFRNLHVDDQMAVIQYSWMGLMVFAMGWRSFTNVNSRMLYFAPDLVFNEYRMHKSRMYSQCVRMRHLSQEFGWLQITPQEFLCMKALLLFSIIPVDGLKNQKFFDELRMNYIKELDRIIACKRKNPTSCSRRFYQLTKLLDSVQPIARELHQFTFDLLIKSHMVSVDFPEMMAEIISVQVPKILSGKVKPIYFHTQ
# Outline: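 Cytosol from castrated rat ventral prostate was incubated overnight at 4°C with 0.5 nM [3H] tracer and compound in TED buffer (10 mM Tris-HCl pH 7.4, molybdate, EDTA, DTT, glycerol).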
# [3] = [3H] R1881 tracer 0.5 nM, read-out: IC50 (nM), Androgen Receptor Binding (Panvera)
SMILES,"IC50 [1, 3]",inhibition at 1 µM ([2]; Concentration 1000 nM) [%],other results
CC(O)(COC(=O)c1ccc(Cl)cc1)c1cc2cc([N+](=O)[O-])c(C(F)(F)F)cc2[nH]1 (centres unmarked) [Compound 55],715 nM and 635 nM,5.5,IC50 [2]: 180 nM
CC(O)(CSc1ccc(Cl)cc1)c1cc2nc(C(F)(F)F)ccc2[nH]1 (racemic) [Compound 3],26000 nM,6.6,
CC(O)(CSc1ccc(Cl)c(Cl)c1)c1cc2cc([N+](=O)[O-])c(C(F)(F)F)cc2n1S(C)(=O)=O (centres unmarked) [Compound 91],1280 nM,36,
CC(O)(CSc1ccccc1)c1cc2cc(Cl)c(C(F)(F)F)cc2[nH]1 (centres unmarked) [Compound 106],225 nM,63,IC50 [2]: 300 nM
CC(O)(COC(=O)c1ccccc1C(F)(F)F)c1cc2cc(NC(=O)C(F)(F)F)c(C(F)(F)F)cc2[nH]1 (centres unmarked) [Compound 60],6750 nM,44.5,IC50 [2]: > 10000 nM
CC(O)(COC(=O)c1ccc(Cl)c(Cl)c1)c1cc2cc(C#N)c(C(F)(F)F)cc2[nH]1 (centres unmarked) [Compound 78],3560 nM,16.6,
CC(O)(Sc1ccc(Cl)c(Cl)c1)c1cc2cc([N+](=O)[O-])c(C(F)(F)F)cc2[nH]1 (racemic) [Compound 254],1020 nM and 920 nM,,"% Inhibition, Androgen Receptor Binding (Rat Cytosol) ([2]; Concentration 1000 nM): 41%; IC50 [2]: 670 nM"
OC1(c2cc3cc(Cl)c(C(F)(F)F)cc3[nH]2)CCN(Cc2ccccc2)CC1 [Compound 22],> 9600 nM,,IC50 [2]: > 7700 nM
CC(O)(CSC1CCCCC1)c1cc2cc(C#N)c(C(F)(F)F)cc2[nH]1 (centres unmarked) [Compound 92],37000 nM,14.7,
CC(CO)(Sc1ccc(Cl)cc1)c1cc2cc(Cl)c(C(F)(F)F)cc2[nH]1 (racemic) [Compound 253],335 nM,33.5,
COC(=O)c1ccc2[nH]c(C(C)(O)CSC3CCCCC3)cc2c1 (centres unmarked) [Compound 94],15000 nM,21.8,
CC(O)(CSc1ccccc1)c1cc2ccccc2n1S(C)(=O)=O (centres unmarked) [Compound 90],> 9000 nM,-2.5,
COC(=O)c1ccc2c(c1)cc(C(C)(O)CSc1ccccc1)n2S(C)(=O)=O (centres unmarked) [Compound 81],15000 nM,5.2,
CC(O)(C[S+]([O-])c1ccc(F)cc1)c1cc2cc(Cl)c(C(F)(F)F)cc2[nH]1 (centres unmarked) [Compound 114],4900 nM,,"% Inhibition, Androgen Receptor Binding (Rat Cytosol) ([2]; Concentration 1000 nM, 1 µM): 61%"
CC(O)(CSc1ccc(F)cc1)c1cc2ccccc2n1S(C)(=O)=O (centres unmarked) [Compound 107],9400 nM,1.5,
CC(O)(CSc1ccc(Cl)c(Cl)c1)c1cc2cc([N+](=O)[O-])c(C(F)(F)F)cc2[nH]1 (centres unmarked) [Compound 87],350 nM and 1650 nM,,"% Inhibition, Androgen Receptor Binding (Rat Cytosol) ([2]; Concentration 1000 nM, 1 µM): 85% and 61.5%; IC50 [2]: 120 nM"
CC(O)(CCl)c1cc2nc(C(F)(F)F)ccc2n1S(C)(=O)=O (centres unmarked) [Compound 4],7600 nM,10.8,

SMILES,"IC50 [1, 3]",inhibition at 1 µM ([2]; Concentration 1000 nM) [%],other results
CC(O)(COC(=O)c1ccc(Cl)c(Cl)c1)c1cc2cc([N+](=O)[O-])c(C(F)(F)F)cc2[nH]1 (centres unmarked) [Compound 56],485 nM and 610 nM,38.5,
CC(O)(CSC1CCCCC1)c1cc2nc(C(F)(F)F)ccc2[nH]1 (racemic) [Compound 1],14000 nM,22,
CC(O)(C[S+]([O-])c1ccc(Cl)c(Cl)c1)c1cc2cc(Cl)c(C(F)(F)F)cc2[nH]1 (centres unmarked) [Compound 116],1750 nM,28.4,
COC(=O)c1ccc2c(c1)cc(C(C)(O)CSc1ccc(F)cc1)n2S(C)(=O)=O (centres unmarked) [Compound 98],8500 nM,-31,
CC(O)(COC(=O)c1ccccc1)c1cc2cc(C#N)c(C(F)(F)F)cc2[nH]1 (centres unmarked) [Compound 75],,,"IC50 ([1]; IC50 (nM), Androgen Receptor Binding (Panvera)): 9100 nM; inhibition at 1 µM [2]: 13.2%"
CC(O)(COC(=O)c1cccc(Cl)c1)c1cc2cc([N+](=O)[O-])c(C(F)(F)F)cc2[nH]1 (centres unmarked) [Compound 58],,79.5,"IC50 ([1]; read-out: IC50 (nM), Androgen Receptor Binding (Panvera)): 455 nM"
CC(O)(COC(=O)c1c(Cl)cccc1Cl)c1cc2cc([N+](=O)[O-])c(C(F)(F)F)cc2[nH]1 (centres unmarked) [Compound 52],150 nM,94.5,IC50 [2]: 79 nM
CC(O)(COC(=O)c1ccc(Cl)cc1)c1cc2cc(Cl)ccc2[nH]1 (centres unmarked) [Compound 53],1970 nM,9.75,
COC(=O)c1ccc2c(c1)cc(C(C)(O)CSC1CCCCC1)n2S(C)(=O)=O (centres unmarked) [Compound 93],23000 nM,35,
CC(C)(C)c1ccc(C(=O)OCC(C)(O)c2cc3cc([N+](=O)[O-])c(C(F)(F)F)cc3[nH]2)cc1 (centres unmarked) [Compound 80],6400 nM,-24.9,
CC(O)(C[S+]([O-])c1ccccc1)c1cc2cc(Cl)c(C(F)(F)F)cc2[nH]1 (centres unmarked) [Compound 112],4100 nM,39.5,
CC(O)(CSc1ccc(Cl)cc1)c1cc2cc(Cl)ccc2[nH]1 (centres unmarked) [Compound 102],665 nM,73.5,IC50 [2]: 140 nM
CC(O)(COC(=O)c1ccccn1)c1cc2cc([N+](=O)[O-])c(C(F)(F)F)cc2[nH]1 (centres unmarked) [Compound 68],19000 nM,36,
CC(O)(COC(=O)c1ccc(F)cc1)c1cc2cc(C#N)c(C(F)(F)F)cc2[nH]1 (centres unmarked) [Compound 77],1110 nM,-9.25,
CC(O)(CSc1ccc(Cl)cc1)c1cc2cc(Cl)c(C(F)(F)F)cc2[nH]1 (centres unmarked) [Compound 82],185 nM and 200 nM,69.8,"% Inhibition, Androgen Receptor Binding (Rat Cytosol) ([2]; Concentration 1000 nM, 1 µM): 83%; IC50 [2]: 640 nM"
CC(O)(CSc1ccc(F)cc1)c1cc2nc(C(F)(F)F)ccc2[nH]1 (racemic) [Compound 5],39000 nM,5.5,
O=C(c1ccc(Cl)cc1)N1CCC(O)(c2cc3cc(Cl)c(C(F)(F)F)cc3[nH]2)CC1 [Compound 25],8800 nM,,"% Inhibition, Androgen Receptor Binding (Rat Cytosol) ([2]; Concentration 1000 nM): −83.5%"
